Laboratory results from patent publication US20250052754A1, “COMPOSITIONS AND METHODS FOR DIAGNOSIS, TREATMENT OF AND PREVENTION OF KIDNEY DISEASE” (XORTX THERAPEUTICS, INC., priority 2021, published 2025).
Converted amounts (≈) assume the structure as drawn.

Legend:
[1] = system: rat model of polycystic kidney disease (PCK); assay: uricase inhibition by oxonic acid in rat model of polycystic kidney disease (FIG. 6A); type: in vivo
Experimental: (§1) FIG. 6: provides data showing that uricase inhibition by oxonic acid (OXO) and commensurate increased uric acid is associated with increased total kidney to body weight ratio (2K/BWT) in a rat model of polycystic kidney disease (PCK) and in a mouse model of polycystic kidney disease (Pkd1RC/RC). Rodent models of polycystic kidney disease were treated with a uricase enzyme inhibitor—oxonic acid (OXO)—to decrease the metabolism of uric acid to allantoin, thereby chronically increasing circulating serum uric acid concentration. […] Increased serum uric acid is associated with structural and functional changes in kidney function. Increased creatinine is associated with decreased filtering capacity of kidneys. disease.

[2] = system: rodent model of polycystic kidney disease; assay: uricase inhibition by oxonic acid, kidney function in rodent model of polycystic kidney disease (FIG. 7); type: in vivo
[3] = system: rodent model of polycystic kidney disease—mouse RC/RC; assay: oxonic acid exposure with or without OXY+L in mouse RC/RC, kidney size (FIG. 9); type: in vivo; conditions: oxonic acid (OXO) exposure alone
Source text: FIG. 9: is a graph showing that in a rodent model of polycystic kidney disease—mouse RC/RC-oxonic acid (OXO) exposure increased kidney size.

[4] = system: mouse model of polycystic kidney disease (Pkd1RC/RC); assay: uricase inhibition by oxonic acid in mouse model of polycystic kidney disease (FIG. 6B); type: in vivo
Experimental: as §1

[5] = oxypurinol solubility with and without metformin; type: physicochemical
Source text: The term “organic base” as used herein refers to the organic base may be (a) a Class 1 base with a pKa1 between about 7 to 13 including but not limited to L-arginine, D-arginine, choline, L-lysine, D-lysine, and caffeine. In an alternative embodiment, the organic base is a biguanide (U.S. Pat. No. 9,480,663) or biguanidine such as metformin, phenformin, buformin or a salts thereof. It is noted that metformin has multiple beneficial effects in the context of compositions and methods described herein. First, it can act as a solubilizing agent for oxypurinol to increase oral bioavailablity. Secondarily, it can act as an alkalinizing agent. Thirdly, metformin here can act as a uric acid solubilizing agent. […] The gliflozin family of SGLT2 inhibitors are also basic and can serve as an organic base in accord with the teachings herein.

[6] = 8 weeks of treatment with oxonic acid, compared to untreated animals
[7] = PCK rat, after 70 days exposure to oxonic acid, P<0.05
[8] = Pkd1RC/RC mouse, after 70 days exposure to oxonic acid, P<0.05

For `O=C(O)c1nc(=O)[nH]c(=O)[nH]1` [oxonic acid], which total kidney volume [1, 6] is on record?
The total kidney volume was “increased significantly”.

What about the serum uric acid ([1]; PCK rat, after 70 days exposure to oxonic acid) of the same molecule?
The serum uric acid was “increased”.

What about the cyst size [1, 7] of the same molecule?
Its cyst size is “increased”.

What about the “total kidney to body weight ratio (2K/BWT)” value [1, 7] of the same molecule?
The value was “increase”.

And the serum creatinine ([1]; PCK rat, after 70 days exposure to oxonic acid, P<0.07)?
The serum creatinine was “increased”.

What about the “creatinine in serum (kidney function)” value [2] of the same molecule?
The value was “increased”.

And the kidney size [3]?
Its kidney size is “increased”.

What about the total kidney volume [4, 6] of the same molecule?
Its total kidney volume is “increased significantly”.

And the serum uric acid ([4]; Pkd1RC/RC mouse, after 70 days exposure to oxonic acid)?
Its serum uric acid is “increased”.

And the cyst size [4, 8]?
The cyst size was “increased”.

And the serum creatinine [4, 8]?
The serum creatinine was “increased”.

What about the “total kidney to body weight ratio (2K/BWT)” value [4, 8] of the same molecule?
Its value is “increase”.

For `O=c1[nH]c(=O)c2c[nH]nc2[nH]1` [oxypurinol], which solubility ([5]; 1:01 to 1:10 ratio of oxypurinol to metformin) is on record?
The solubility was no less than 16800 µg/mL.

What about the solubility ([5]; without metformin (starting value)) of the same molecule?
Its solubility is 200 µg/mL (≈ 1310 µM).
